According to patent US9580390B2, “Indazole compounds as kinase inhibitors and method of treating cancer with same” (University Health Network, priority 2011, dated 2017):
Like-named read-outs stand apart in the source and are kept apart here.

What was measured:
[1] = test system: colon cancer cells (HCT116); assay: Cancer cell line growth inhibition (SRB assay); type: cell-based; details: Homo sapiens, HCT-116, read-out: Cancer Cell Line GI50 Range HCT116
TICs (Ovarian 2393A) = assay: Ovarian tumor-initiating cell growth inhibition (Alamar Blue); type: cell-based; details: 144 h, 6 days, read-out: Tumor Initiating Cell GI50 Range Ovarain 2393A
TICs (Colon 12) = assay: Colon tumor-initiating cell growth inhibition (Alamar Blue); type: cell-based; details: 216 h, 9 days, read-out: Tumor Initiating Cell GI50 Range Colon 12
human TTK = target: T1, human TTK (Homo sapiens, UniProt P33981); assay: TTK inhibition assay (indirect ELISA); type: biochemical; details: read-out: TTK IC50 Range
T1 construct: amino terminal GST fusion of full length human TTK; purchased Invitrogen
T1 sequence (P33981 1-857): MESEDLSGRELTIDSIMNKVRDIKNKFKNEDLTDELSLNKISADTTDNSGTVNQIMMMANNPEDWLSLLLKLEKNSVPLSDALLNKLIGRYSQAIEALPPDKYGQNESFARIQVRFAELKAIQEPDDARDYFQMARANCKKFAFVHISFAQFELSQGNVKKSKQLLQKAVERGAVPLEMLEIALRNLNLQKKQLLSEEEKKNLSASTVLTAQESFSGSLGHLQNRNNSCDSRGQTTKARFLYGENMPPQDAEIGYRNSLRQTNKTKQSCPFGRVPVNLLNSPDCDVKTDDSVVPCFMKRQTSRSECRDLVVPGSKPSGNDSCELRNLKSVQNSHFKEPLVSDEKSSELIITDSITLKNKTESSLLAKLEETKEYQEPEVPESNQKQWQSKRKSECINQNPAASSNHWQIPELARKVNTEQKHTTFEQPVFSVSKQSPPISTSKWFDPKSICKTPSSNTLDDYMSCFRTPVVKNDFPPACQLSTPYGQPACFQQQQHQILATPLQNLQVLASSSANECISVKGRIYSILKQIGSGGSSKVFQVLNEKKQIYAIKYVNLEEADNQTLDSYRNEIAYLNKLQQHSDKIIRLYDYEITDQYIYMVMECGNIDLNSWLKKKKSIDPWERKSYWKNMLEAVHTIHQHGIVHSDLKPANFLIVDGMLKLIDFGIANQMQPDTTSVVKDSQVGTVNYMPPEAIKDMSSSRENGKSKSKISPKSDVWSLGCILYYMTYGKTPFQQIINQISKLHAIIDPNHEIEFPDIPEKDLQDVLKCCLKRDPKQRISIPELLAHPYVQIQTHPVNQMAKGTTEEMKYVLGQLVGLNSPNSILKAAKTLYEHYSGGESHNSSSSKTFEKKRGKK

Breast cancer cells = assay: Cancer cell line growth inhibition (SRB assay); type: cell-based; details: Homo sapiens; MDA-MB-468; read-out: Cancer Cell Line GI50 Range MDA-MB-468
[2] = test system: ovarian cancer cells (PA-1); assay: Cancer cell line growth inhibition (SRB assay); type: cell-based; details: read-out: Cancer Cell Line GI50 Range PA-1
[3] = HCT116 colon cancer cells, SRB assay
[4] = PA-1 ovarian cancer cells, SRB assay

Row | Compound | GI50 [1] [µM] | GI50 (TICs (Ovarian 2393A); Ovarian 2393A TICs) [µM] | GI50 (TICs (Colon 12); Colon 12 TICs) [µM] | IC50 (human TTK) [µM] | GI50 (Breast cancer cells) [µM] | GI50 ([2]; Homo sapiens, PA-1) [µM] | GI50 [1, 3] [µM] | GI50 (TICs (Ovarian 2393A); ovarian TICs, Alamar Blue) [µM] | GI50 (TICs (Colon 12); colon TICs, Alamar Blue) [µM] | GI50 [2, 4] [µM]
1 | CC(C)[C@H](NC(=O)c1ccc2[nH]nc(-c3ccc(N4C5CCC4CC(O)C5)cc3)c2c1)c1ccccc1Cl (stereo partly drawn) [Example A356, N-((S)-1-(2-chlorophenyl)-2-methylpropyl)-3-(4-((1R,3S,5S)-3-hydroxy-8-azabicyclo[3.2.1]octan-8-yl)phenyl)-1H-indazole-5-carboxamide] | < 0.1 | < 0.1 | < 0.1 | < 0.1 | < 0.1 | < 0.1 | – | – | – | –
2 | CC(C)C[C@H](NC(=O)c1ccc2[nH]nc(-c3ccc(N4CC(N5CCOCC5)C4)cc3)c2c1)c1ccccc1Cl [Example A315, (S)-N-(1-(2-chlorophenyl)-3-methylbutyl)-3-(4-(3-morpholinoazetidin-1-yl)phenyl)-1H-indazole-5-carboxamide] | < 0.1 | 0.1 to 0.5 | < 0.1 | < 0.1 | 0.1 to 0.5 | < 0.1 | – | – | – | –
3 | CC(C)C[C@H](NC(=O)c1ccc2[nH]nc(-c3ccc(N4C5CCC4CC(O)C5)cc3)c2c1)c1ccccc1 (stereo partly drawn) [Example A368, 3-(4-((1R,3S,5S)-3-hydroxy-8-azabicyclo[3.2.1]octan-8-yl)phenyl)-N-((S)-3-methyl-1-phenylbutyl)-1H-indazole-5-carboxamide] | < 0.1 | 0.1 to 0.5 | < 0.1 | < 0.1 | 0.1 to 0.5 | < 0.1 | – | – | – | –
4 | CN1CCC(Oc2ccc(-c3n[nH]c4ccc(C(=O)NC(c5ccccc5)C5CC5)cc34)cc2S(C)(=O)=O)CC1 (centres unmarked) [Example A246, N-(cyclopropyl(phenyl)methyl)-3-(4-((1-methylpiperidin-4-yl)oxy)-3-(methylsulfonyl)phenyl)-1H-indazole-5-carboxamide] | 0.1 to 0.5 | > 0.5 | > 0.5 | < 0.1 | > 0.5 | < 0.1 | – | – | – | –
5 | CC(C)CC(NC(=O)c1ccc2[nH]nc(-c3ccc(O[C@H]4C[C@H]5CC[C@@H](C4)N5C=O)cc3)c2c1)c1ccccn1 (some centres unmarked) [Example A339] | < 0.1 | < 0.1 | < 0.1 | < 0.1 | < 0.1 | < 0.1 | – | – | – | –
6 | CC(C)C(NC(=O)c1ccc2[nH]nc(-c3ccc(OC4CC5CCC(C4)N5C)cc3)c2c1)c1ccccn1 (centres unmarked) [Example A395, N-(2-methyl-1-(pyridin-2-yl)propyl)-3-(4-((8-methyl-8-azabicyclo [3.2.1]octan-3-yl)oxy)phenyl)-1H-indazole-5-carboxamide] | < 0.1 | 0.1 to 0.5 | < 0.1 | < 0.1 | < 0.1 | < 0.1 | – | – | – | –
7 | O=C(N[C@H](c1ccccn1)C1CCCC1)c1ccc2[nH]nc(-c3ccc(N4CCCN(C5COC5)CC4)cc3)c2c1 [Example A370, (S)-N-(cyclopentyl(pyridin-2-yl)methyl)-3-(4-(4-(oxetan-3-yl)-1,4-diazepan-1-yl)phenyl)-1H-indazole-5-carboxamide] | < 0.1 | 0.1 to 0.5 | < 0.1 | < 0.1 | < 0.1 | < 0.1 | – | – | – | –
8 | CC(C)C[C@H](NC(=O)c1ccc2[nH]nc(-c3ccc(N4[C@@H]5CC[C@H]4COC5)cc3)c2c1)c1ccccn1 [Example A303, 3-(4-((1R,5S)-3-oxa-8-azabicyclo[3.2.1]octan-8-yl)phenyl)-N-((S)-3-methyl-1-(pyridin-2-yl)butyl)-1H-indazole-5-carboxamide] | < 0.1 | < 0.1 | < 0.1 | < 0.1 | < 0.1 | < 0.1 | – | – | – | –
9 | CC(C)[C@H](NC(=O)c1ccc2[nH]nc(-c3ccc(OC4CCN(C[C@@H](O)C(F)(F)F)CC4)cc3)c2c1)c1ccccc1Cl [Example A228, N-((S)-1-(2-chlorophenyl)-2-methylpropyl)-3-(4-((1-((R)-3,3,3-trifluoro-2-hydroxypropyl)piperidin-4-yl)oxy)phenyl)-1H-indazole-5-carboxamide] | 0.1 to 0.5 | 0.1 to 0.5 | > 0.5 | < 0.1 | 0.1 to 0.5 | 0.1 to 0.5 | – | – | – | –
10 | O=C(N[C@H](c1ccccn1)C1CCCC1)c1ccc2[nH]nc(-c3ccc(N4CC(C5COC5)C4)cc3)c2c1 [Example A309, (S)-N-(cyclopentyl(pyridin-2-yl)methyl)-3-(4-(3-(oxetan-3-yl)azetidin-1-yl)phenyl)-1H-indazole-5-carboxamide] | < 0.1 | < 0.1 | < 0.1 | < 0.1 | < 0.1 | < 0.1 | – | – | – | –
11 | O=C(NCC1(N2CCOCC2)CCCCC1)c1ccc2[nH]nc(-c3ccc(N4[C@@H]5CC[C@H]4C[C@@H](O)C5)cc3)c2c1 [Example A508, 3-(4-((1R,3R,5S)-3-hydroxy-8-azabicyclo[3.2.1]octan-8-yl)phenyl)-N-((1-morpholinocyclohexyl)methyl)-1H-indazole-5-carboxamide] | < 0.1 | < 0.1 | < 0.1 | < 0.1 | < 0.1 | < 0.1 | – | – | – | –
12 | O=C(N[C@H](c1ccccn1)C1CC1)c1ccc2[nH]nc(-c3ccc4c(c3)C(=O)CC3(CCN(C5COC5)CC3)O4)c2c1 [Example A264, (S)-N-(cyclopropyl(pyridin-2-yl)methyl)-3-(1′-(oxetan-3-yl)-4-oxospiro[chroman-2,4′-piperidin]-6-yl)-1H-indazole-5-carboxamide] | < 0.1 | 0.1 to 0.5 | 0.1 to 0.5 | < 0.1 | < 0.1 | < 0.1 | – | – | – | –
13 | CN1[C@@H]2CC[C@H]1C[C@@H](Oc1ccc(-c3n[nH]c4ccc(C(=O)NCC5(c6ccccc6)CCOCC5)cc34)cc1)C2 [Example A484, 3-(4-(((1R,3R,5S)-8-methyl-8-azabicyclo[3.2.1]octan-3-yl)oxy)phenyl)-N-((4-phenyltetrahydro-2H-pyran-4-yl)methyl)-1H-indazole-5-carboxamide] | < 0.1 | 0.1 to 0.5 | 0.1 to 0.5 | < 0.1 | 0.1 to 0.5 | < 0.1 | – | – | – | –
14 | CN1CC[C@@H](Oc2ccc(-c3n[nH]c4ccc(C(=O)NCC5(N6CCOCC6)CCCCC5)cc34)cc2)[C@@H](F)C1 [Example A455, 3-(4-(((3S,4R)-3-fluoro-1-methylpiperidin-4-yl)oxy)phenyl)-N-((1-morpholinocyclohexyl)methyl)-1H-indazole-5-carboxamide] | – | – | – | < 0.1 | – | – | < 0.1 | 0.1 to 0.5 | 0.1 to 0.5 | < 0.1
15 | O=C(N[C@H](c1ccccn1)C1CC1)c1ccc2[nH]nc(-c3ccc(OC4CC5CCC(C4)N5)cc3)c2c1 (stereo partly drawn) [Example A374, 3-(4-((1R,3R,5S)-8-azabicyclo[3.2.1]octan-3-yloxy)phenyl)-N-((S)-cyclopropyl(pyridin-2-yl)methyl)-1H-indazole-5-carboxamide] | < 0.1 | 0.1 to 0.5 | > 0.5 | < 0.1 | – | < 0.1 | – | – | – | –
16 | COCCN1CCC(Oc2ccc(-c3n[nH]c4ccc(C(=O)N[C@H](c5cccs5)C5CC5)cc34)cc2)CC1 [Example A163] | – | – | – | < 0.1 | – | – | < 0.1 | 0.1 to 0.5 | 0.1 to 0.5 | < 0.1
17 | O=CN1CCC(Oc2ccc(-c3n[nH]c4ccc(C(=O)NCC5(N6CCOCC6)CCCCC5)cc34)cc2)CC1 [Example A504, 3-(4-((1-formylpiperidin-4-yl)oxy)phenyl)-N-((1-morpholinocyclohexyl)methyl)-1H-indazole-5-carboxamide] | – | – | – | < 0.1 | – | – | < 0.1 | 0.1 to 0.5 | 0.1 to 0.5 | 0.1 to 0.5
